Key:
mTOR = molecular target: T1, mTOR (Homo sapiens, UniProt P42345); assay: In vitro mTOR assay (Lanthascreen); assay type: biochemical; settings: average if run more than once
T1 construct: purchased Invitrogen (Carlsbad, Calif.)
Summary of the method: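 mTOR activity measured by TR-FRET as Thr46 phosphorylation of GFP-4E-BP1, detected with Tb-labelled anti-phospho-4E-BP1 [T46] antibody after EDTA stop. Final 50 ng/mL mTOR, 400 nM GFP-4E-BP1, 7 μM ATP in HEPES pH 7.5 with 10 mM MnCl2; 1 h, room temperature. 10-point 1:3 compound series.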

[1] = system: phosphorylation of Akt at Serine 473; assay: pAkt AlphaScreen (U87 cell); assay type: cell-based; settings: Homo sapiens, U-87 MG; U87 MG cells, pAkt Ser473; average
Method: pAkt Alphascreen (U87 Cell)
The pAkt AlphaScreen® assay (PerkinElmer, Waltham, Mass.) determines whether there is phosphorylation of Akt at Serine 473 by recruitment of a phosphospecific antibody. This assay was performed using U87 MG cells. The U87 growth media consists of MEM (Gibco, Carlsbad, Calif.) supplemented with 10% FBS (Gibco,), 1× Non-Essential Amino Acids (Gibco,) and 1× Penicillin/Streptomycin/Glutamine (Gibco). The cells were maintained weekly using 0.05% Trypsin (Gibco) and replated in 150 mm TC-Treated Culture Dishes (Corning, Corning, N.Y.).
The first day of the assay, the adherent cells were trypsinized, media was added to the loose cells and cells were mixed to a homogenous mixture. 0.5 ml of the homogenous mixture was counted on the Beckman Coulter® Vi-CELL™ XR (Fullerton, Calif.). 50 frames of cells were counted and the number of viable cells was determined. The cells were then diluted to 0.25 million cells per ml, and centrifuged at 200 rcf for 5 minutes. The media was removed and the cells were reconstituted in fresh media for plating. The cells were plated at 20 μl per well on the PerkinElmer® FlexDrop PLUS in Low Volume 384 Well White Tissue Culture Plates (Corning) with a final cell density of 5K cells per well. The plates were incubated overnight at 37° Celsius, 5% CO2.
On the second day, the compound plates were prepared, the cells were treated with compound and the pAkt reaction mix was added to the cell lysate. 384 well compound plates were prepared containing 1 μl of compound per well starting at 5 mM and diluted 1:2 across the row, resulting in a 22 well serial dilution. 39 μl of growth media was added to the compound plate in rows 1-22 using the PerkinElmer® FlexDrop PLUS resulting in a DMSO concentration of 2.5%. The cell plates and diluted compound plates were put onto the VELOCITY11™ VPREP™ 384 ST where the compound plate was mixed and 5 μl of serially diluted compound or controls was added to the cell plate. The final concentration of the compounds was 25 μM serially diluted to 11.9 pM in 0.5% DMSO. The cell plates were then incubated with compound for two hours at 37° Celsius, 5% CO2. After two hours, the media in the cell plates was aspirated using the BioTek® ELx405HT plate washer (Winooski, Vt.) removing the majority of media and compound without disturbing the adherent U87 cells. The following assay reagents are components of the SureFire® Akt (Ser 473) Phosphorylation 50K Point Kit (TGR BioSciences, Adelaide, Austalia) and an IgG Detection Kit (PerkinElmer, Waltham, Mass.). 5 μl of 1× Lysis Buffer was added to each well using the PerkinElmer® FlexDrop PLUS. The plates were then incubated at room temperature on a shaker for ten minutes. The AlphaScreen® reaction was prepared under low light conditions (subdued or green light) including p-Akt (Ser 473) Reaction Buffer, Dilution Buffer, Activation Buffer, Acceptor Beads and Donor Beads at a ratio of 40:20:10:1:1 respectively. The AlphaScreen® reaction was added to the cell lysate at 6 μl per well using the PerkinElmer® FlexDrop PLUS. The plates were placed in a humid environment to reduce edge effects and incubated overnight at room temperature with restricted air flow in the dark.
On the final day of the experiment, the plates were read on the PerkinElmer® EnVision™ 2103 Multilable Reader using the standard AlphaScreen® readout. The POC is calculated and the data is analyzed to report the IC50 IP for pAkt at Serine 473.
Activity data for the compounds tested in the PI3K cell based Akt assay is provided in Table 2 under the column heading U87

PI3Kα = molecular target: T2, PI3Kα (Homo sapiens, UniProt P42336); assay: In vitro PI3K AlphaScreen assay; assay type: biochemical; settings: average if run more than once
T2 construct: Full length p110 subunits of PI3K α, β and δ, N-terminally labeled with polyHis tag; polyHis (N); made in house; host or cells: Sf9 insect cells (baculovirus)
T2 sequence (P42336 whole entry): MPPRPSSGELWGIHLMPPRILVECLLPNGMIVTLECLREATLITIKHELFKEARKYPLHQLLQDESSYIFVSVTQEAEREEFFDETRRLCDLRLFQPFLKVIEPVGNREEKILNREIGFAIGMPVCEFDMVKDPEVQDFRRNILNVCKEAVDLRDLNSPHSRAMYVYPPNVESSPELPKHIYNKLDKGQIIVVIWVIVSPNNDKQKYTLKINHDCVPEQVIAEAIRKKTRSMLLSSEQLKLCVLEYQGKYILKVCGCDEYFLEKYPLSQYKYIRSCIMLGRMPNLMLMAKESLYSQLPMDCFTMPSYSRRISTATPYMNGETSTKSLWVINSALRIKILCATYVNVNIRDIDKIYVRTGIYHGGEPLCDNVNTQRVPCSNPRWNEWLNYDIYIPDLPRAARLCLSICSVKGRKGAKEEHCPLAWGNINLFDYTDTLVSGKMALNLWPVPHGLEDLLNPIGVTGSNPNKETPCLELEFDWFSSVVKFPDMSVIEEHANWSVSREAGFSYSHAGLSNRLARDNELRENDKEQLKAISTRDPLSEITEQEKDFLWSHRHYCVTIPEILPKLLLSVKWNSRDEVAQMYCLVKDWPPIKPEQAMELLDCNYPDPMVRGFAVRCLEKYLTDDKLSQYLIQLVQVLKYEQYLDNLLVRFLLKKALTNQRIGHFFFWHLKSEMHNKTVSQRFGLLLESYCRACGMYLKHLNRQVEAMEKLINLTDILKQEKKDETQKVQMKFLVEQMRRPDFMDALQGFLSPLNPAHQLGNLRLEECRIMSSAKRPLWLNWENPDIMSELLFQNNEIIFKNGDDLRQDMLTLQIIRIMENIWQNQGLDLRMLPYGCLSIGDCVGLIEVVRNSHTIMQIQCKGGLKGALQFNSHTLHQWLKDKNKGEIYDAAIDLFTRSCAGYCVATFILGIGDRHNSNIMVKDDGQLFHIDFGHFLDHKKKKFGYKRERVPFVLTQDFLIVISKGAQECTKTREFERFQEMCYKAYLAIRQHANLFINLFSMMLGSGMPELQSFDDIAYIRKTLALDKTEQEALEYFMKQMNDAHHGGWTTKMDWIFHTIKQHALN
T2 sequence (P27986 whole entry partner): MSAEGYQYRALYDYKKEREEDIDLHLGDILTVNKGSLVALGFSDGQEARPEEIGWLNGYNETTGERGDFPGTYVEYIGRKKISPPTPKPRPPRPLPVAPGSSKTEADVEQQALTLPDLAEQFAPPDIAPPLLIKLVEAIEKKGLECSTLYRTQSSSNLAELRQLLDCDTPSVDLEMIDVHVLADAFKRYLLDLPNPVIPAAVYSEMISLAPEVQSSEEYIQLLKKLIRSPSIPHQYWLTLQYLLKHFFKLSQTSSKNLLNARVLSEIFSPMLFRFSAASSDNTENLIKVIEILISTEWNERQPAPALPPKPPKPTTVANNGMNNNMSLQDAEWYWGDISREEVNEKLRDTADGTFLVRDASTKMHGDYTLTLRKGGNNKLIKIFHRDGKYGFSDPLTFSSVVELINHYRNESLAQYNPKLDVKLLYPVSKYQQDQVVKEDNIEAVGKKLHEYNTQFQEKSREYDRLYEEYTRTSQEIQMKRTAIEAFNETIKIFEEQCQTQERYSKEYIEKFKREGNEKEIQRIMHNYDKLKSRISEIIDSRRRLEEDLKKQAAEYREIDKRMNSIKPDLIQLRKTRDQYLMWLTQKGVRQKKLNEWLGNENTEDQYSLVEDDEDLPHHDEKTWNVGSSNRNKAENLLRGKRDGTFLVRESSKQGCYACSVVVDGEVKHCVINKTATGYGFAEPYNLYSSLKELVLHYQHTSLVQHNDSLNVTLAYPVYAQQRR
Method: In Vitro PI3K Alphascreen® Assay
The PI3K AlphaScreen® assay (PerkinElmer, Waltham, Mass.) measures the activity of a panel of four phosphoinositide 3-kinases: PI3Kα, PI3Kβ, PI3Kγ, and PI3Kδ. Each of these enzymes phosphorylates the 3′-hydroxyl group on phosphatidylinositiol (4,5)-bisphosphate (PIP2) to produce phosphatidylinositol (3,4,5)-trisphosphate (PIP3). This phosphorylation activity is measured using a GST-tagged PIP3 binding protein (Echelon Biosciences, Salt Lake City, Utah), an anti-GST-tagged Acceptor bead, and streptavidin-Donor bead. […] In the absence of this interaction, proximity of the Donor and Acceptor beads is decreased, producing a loss of luminescent signal which is inversely proportional to PI3K activity.
The enzyme reaction buffer is made using sterile water (Baxter, Deerfield, Ill.) and 50 mM Tris HCl pH 7, 14 mM MgCl2, 2 mM sodium cholate, and 100 mM NaCl. 2 mM DTT is added fresh the day of the experiment. The AlphaScreen® reaction buffer is made using sterile water and 10 mM Tris HCl pH 7.5, 150 mM NaCl, 0.10% Tween 20, and 30 mM EDTA. 1 mM DTT is added fresh the day of the experiment.
The source plates for this assay are 384-well Greiner clear polypropylene plates containing test compounds at 5mM and diluted 1:2 over 22 points. […] Source plates are replicated into 384-well Optiplates (PerkinElmer, Waltham, Mass.), 0.5 μL/well, to make assay-ready plates.
The different PI3K isoforms are each diluted in enzyme reaction buffer to 2× working solutions. […] Two different 2× substrate solutions are made in enzyme reaction buffer. In one solution, PI(4,5)P2 (Echelon Biosciences, Salt Lake City, Utah) is diluted to 10 μM and ATP is diluted to 20 μM. This solution is used in the assays testing PI3Kα and PI3Kβ. In a second solution, PI(4,5)P2 is diluted to 10 μM and ATP is diluted to 8 μM. This solution used in the assays testing PI3Kγ and PI3Kδ.
The AlphaScreen® reaction solutions are made using beads from the anti-GST AlphaScreen® kit (PerkinElmer, Waltham, Mass.). Two solutions are made in Alphascreen reaction buffer to 4× working concentrations. In one solution, biotinylated-IP4 (Echelon Biosciences, Salt Lake City, Utah) is diluted to 40 nM and streptavadin-Donor Beads are diluted to 80 μg/mL. In the second solution, PIP3-binding protein (Echelon Biosciences, Salt Lake City, Utah) is diluted to 40 nM and anti-GST-Acceptor Beads are diluted to 80 μg/mL. 10 μL/well of enzyme reaction buffer is added to Column 24 of the assay ready plates in place of enzyme. This is done for plates in the PI3Kα, β, and 67 assays.
Using a 384-well dispensing Multidrop (Titertek, Huntsville, Ala.), 10 μL/well of 2× enzyme (PI3Kα, β, δ) is added to Columns 1-23 of the appropriate assay ready plates (for PI3Kγ 10 μL is added to Columns 1-24). 10 μL/well of the appropriate substrate solution (the solution with 20 μM ATP for PI3Kα and β assays, and the solution with 8 μM ATP for PI3Kγ and δ assays) is then added to Columns 1-24 of the plates. Plates are then incubated at room temperature for 20 minutes.
In the dark, 10 μL/well of the Donor Bead solution is added to Columns 1-24 of the plates to quench the enzyme reaction. The plates are incubated at room temperature for 30 minutes. Still in the dark, 10 μL/well of the Acceptor Bead solution is also added to Columns 1-24 of the plates. The plates are then incubated in the dark for 1.5 hours. The plates are read on an Envision Multilabel Plate Reader (PerkinElmer, Waltham, Mass.) with a 680 nm excitation filter and a 520-620 nm emission filter.

T1 sequence (P42345 1360-2549 limits assumed): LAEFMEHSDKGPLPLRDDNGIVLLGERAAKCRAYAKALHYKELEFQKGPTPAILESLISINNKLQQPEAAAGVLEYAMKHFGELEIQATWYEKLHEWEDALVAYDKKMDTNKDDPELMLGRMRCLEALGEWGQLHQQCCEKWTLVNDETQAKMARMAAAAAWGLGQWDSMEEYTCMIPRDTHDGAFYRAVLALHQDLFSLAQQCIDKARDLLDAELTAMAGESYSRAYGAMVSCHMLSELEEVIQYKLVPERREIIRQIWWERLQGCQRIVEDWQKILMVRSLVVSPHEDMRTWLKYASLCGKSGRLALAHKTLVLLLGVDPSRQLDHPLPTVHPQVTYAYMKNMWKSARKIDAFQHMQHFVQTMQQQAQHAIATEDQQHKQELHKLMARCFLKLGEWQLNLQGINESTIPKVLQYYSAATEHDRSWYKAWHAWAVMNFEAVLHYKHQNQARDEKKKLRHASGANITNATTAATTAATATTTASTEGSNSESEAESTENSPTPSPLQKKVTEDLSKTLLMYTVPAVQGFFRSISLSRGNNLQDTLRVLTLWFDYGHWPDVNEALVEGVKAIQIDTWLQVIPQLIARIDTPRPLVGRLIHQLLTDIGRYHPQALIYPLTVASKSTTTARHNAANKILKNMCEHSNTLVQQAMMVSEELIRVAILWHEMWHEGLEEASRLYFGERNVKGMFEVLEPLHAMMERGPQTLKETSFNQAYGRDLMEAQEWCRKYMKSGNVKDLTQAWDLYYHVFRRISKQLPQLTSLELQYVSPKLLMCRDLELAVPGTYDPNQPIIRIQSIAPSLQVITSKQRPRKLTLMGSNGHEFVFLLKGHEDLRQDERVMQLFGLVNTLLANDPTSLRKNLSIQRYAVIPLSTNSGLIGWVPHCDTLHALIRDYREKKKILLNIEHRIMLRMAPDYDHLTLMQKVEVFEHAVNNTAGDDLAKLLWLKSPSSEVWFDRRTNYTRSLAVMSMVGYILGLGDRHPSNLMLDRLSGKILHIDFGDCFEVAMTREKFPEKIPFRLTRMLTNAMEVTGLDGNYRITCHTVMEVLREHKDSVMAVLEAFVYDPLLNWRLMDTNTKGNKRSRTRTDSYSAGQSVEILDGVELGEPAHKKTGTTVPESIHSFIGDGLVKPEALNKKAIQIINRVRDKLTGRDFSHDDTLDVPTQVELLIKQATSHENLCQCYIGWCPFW

SMILES	IC50 (mTOR) [µM]	IC50 [1] [µM]	Ki (PI3Kα) [µM]
Cc1ccccc1OC1CCN(c2ccnc3ccc(-c4cnc(Cl)c(NS(C)(=O)=O)c4)cc23)C1 (stereo not drawn) [Example 80, N-(2-chloro-5-(4-(3-(2-methylphenoxy)-1-pyrrolidinyl)-6-quinolinyl)-3-pyridinyl)methanesulfonamide]	0.389	0.704	0.0294
COc1ncc(-c2ccc3nccc(-c4ccncc4)c3c2)cc1NS(C)(=O)=O [Example 120, N-(2-Methoxy-5-(4-(pyridin-4-yl)quinolin-6-yl)pyridin-3-yl)methanesulfonamide]	0.0048	0.0147	0.0035
CCN(Cc1noc(C2CC2)n1)c1ccnc2ccc(-c3cnc(Cl)c(NS(C)(=O)=O)c3)cc12 [Example 77, N-(2-chloro-5-(4-(((5-cyclopropyl-1,2,4-oxadiazol-3-yl)methyl)(ethyl)amino)-6-quinolinyl)-3-pyridinyl)methanesulfonamide]	0.0677	1.93	0.0184
CN(C)S(=O)(=O)Nc1cc(-c2ccc3ncc(=O)n(-c4cccc(C(F)(F)F)c4)c3c2)cnc1Cl [Example 133, N-(2-chloro-5-(3-oxo-4-(3-(trifluoromethyl)phenyl)-3,4-dihydroquinoxalin-6-yl)pyridin-3-yl)dimethylaminosulfonamide]	0.0005	0.0094	0.0023
COCC1CCCN1c1ccnc2ccc(-c3cnc(Cl)c(NS(C)(=O)=O)c3)cc12 (stereo not drawn) [Example 81, N-(2-chloro-5-(4-(2-(methoxymethyl)-1-pyrrolidinyl)-6-quinolinyl)-3-pyridinyl)methanesulfonamide]	2.74	2.71	0.368
CN(C)S(=O)(=O)Nc1cc(-c2ccc3nccc(Cl)c3c2)cnc1Cl [Example 125, N′-(2-chloro-5-(4-chloro-6-quinolinyl)-3-pyridinyl)-N,N-dimethylsulfamide]	0.0077	0.723	0.0033
CS(=O)(=O)Nc1cc(-c2ccc3nccc(-c4cccnc4)c3c2)cnc1-c1cccnc1 [Example 117, N-(5-(4-(Pyridin-3-yl)quinolin-6-yl)-2,3′-bipyridin-3-yl)methanesulfonamide]	0.0015	0.255	0.0053
COc1cc(-c2ccnc3ccc(-c4cnc(Cl)c(NS(C)(=O)=O)c4)cc23)ccn1 [Example 106, N-(2-chloro-5-(4-(2-methoxy-4-pyridinyl)-6-quinolinyl)-3-pyridinyl)methanesulfonamide]	0.0034	0.0259	0.0019
O=S(=O)(Nc1cc(-c2ccc3nccc(-c4ccnc(Cl)c4)c3c2)cnc1Cl)c1ccc(F)cc1 [Example 94, N-(2-chloro-5-(4-(2-chloro-4-pyridinyl)-6-quinolinyl)-3-pyridinyl)-4-fluorobenzenesulfonamide]	0.0006	0.0053	0.0013
COCCN(C)c1ccnc2ccc(-c3cnc(Cl)c(NS(=O)(=O)N(C)CCOC)c3)cc12 [Example 126, N′-(2-chloro-5-(4-((2-methoxyethyl)(methyl)amino)-6-quinolinyl)-3-pyridinyl)-N-(2-methoxyethyl)-N-methylsulfamide]	0.134	0.669	0.0801
COCCN(C)S(=O)(=O)Nc1cc(-c2ccc3nccc(N4CCOCC4)c3c2)cnc1Cl [Example 123, N′-(2-Chloro-5-(4-(4-morpholinyl)-6-quinolinyl)-3-pyridinyl)-N-(2-methoxyethyl)-N-methylsulfamide]	0.0169	0.037	0.0054
CN(Cc1cccc(F)c1)c1ccnc2ccc(-c3cnc(Cl)c(NS(C)(=O)=O)c3)cc12 [Example 85, N-(2-chloro-5-(4-((3-fluorobenzyl)(methyl)amino)-6-quinolinyl)-3-pyridinyl)methanesulfonamide]	0.0621	1.66	0.0158
C[C@H]1CN(c2ccnc3ccc(-c4cnc(Cl)c(NS(C)(=O)=O)c4)cc23)C[C@H](C)O1 [Example 109, N-(2-chloro-5-(4-((2S,6S)-2,6-dimethyl-4-morpholinyl)-6-quinolinyl)-3-pyridinyl)methanesulfonamide]	0.0137	0.0214	0.0032
CN(C)S(=O)(=O)Nc1cc(-c2ccc3ncc(=O)n(-c4ccccc4)c3c2)cnc1Cl [Example 130, N-(2-chloro-5-(3-oxo-4-phenyl-3,4-dihydroquinoxalin-6-yl)pyridin-3-yl)dimethylaminosulfonamide]	0.0012	0.0087	0.0025
O=S(=O)(Nc1cc(-c2ccc3nccc(N4CCOCC4)c3c2)cnc1Cl)c1cccnc1 [Example 101, N-(2-chloro-5-(4-(4-morpholinyl)-6-quinolinyl)-3-pyridinyl)-3-pyridinesulfonamide]	0.0036	0.0762	0.0027
COCCN(C)S(=O)(=O)Nc1cc(-c2ccc3ncc(=O)n(-c4cccc(C(F)(F)F)c4)c3c2)cnc1Cl [Example 134, N-(2-Chloro-5-(3-oxo-4-(3-(trifluoromethyl)phenyl)-3,4-dihydroquinoxalin-6-yl)pyridin-3-yl) 2-methoxy-N-methylethanamino sulfonamide]	0.0042	0.0283	0.0185
CN(C)c1ccc(-c2ccnc3ccc(-c4cnc(Cl)c(NS(=O)(=O)c5ccc(F)cc5)c4)cc23)cc1 [Example 102, N-(2-chloro-5-(4-(4-(dimethylamino)phenyl)-6-quinolinyl)-3-pyridinyl)-4-fluorobenzenesulfonamide]	0.0153	0.0641	0.0013
COc1ccc(OC)c(CNc2ccnc3ccc(-c4cnc(Cl)c(NS(C)(=O)=O)c4)cc23)c1 [Example 87, N-(2-chloro-5-(4-((2,5-dimethoxybenzyl)amino)-6-quinolinyl)-3-pyridinyl)methanesulfonamide]	0.295	1.42	0.0332
C[C@@H]1CN(c2ccnc3ccc(-c4cnc(Cl)c(NS(C)(=O)=O)c4)cc23)C[C@H](C)O1 [Example 103, N-(2-chloro-5-(4-((2R,6S)-2,6-dimethyl-4-morpholinyl)-6-quinolinyl)-3-pyridinyl)methanesulfonamide]	0.0102	0.0556	0.0032
Cc1cc(-c2ccnc3ccc(-c4cnc(Cl)c(NS(C)(=O)=O)c4)cc23)ccn1 [Example 105, N-(2-chloro-5-(4-(2-methyl-4-pyridinyl)-6-quinolinyl)-3-pyridinyl)methanesulfonamide]	0.0015	0.0085	0.0015
CS(=O)(=O)Nc1cc(-c2ccc3nccc(-c4cccnc4)c3c2)cnc1Cl [Example 116, N-(2-Chloro-5-(4-(pyridin-3-yl)quinolin-6-yl)pyridin-3-yl)methanesulfonamide]	0.0029	0.019	0.0013
CS(=O)(=O)Nc1cc(-c2ccc3nccc(-c4ccncc4)c3c2)cnc1Cl [Example 118, N-(2-Chloro-5-(4-(pyridin-4-yl)quinolin-6-yl)pyridin-3-yl)methanesulfonamide]	0.0012	0.0127	0.0011

— patent publication US8415376B2, “Inhibitors of PI3 kinase” (Amgen Inc., priority 2008, dated 2013)
